The text below walks through data of patent publication US20260207621A1 (Vividion Therapeutics, Inc., priority 2022, published 2026).

Molecules are shown by their SMILES.

The test deals with Nrf2. Briefly: Nrf2 antagonism assay: ARE luciferase reporter in KYSE-70 cells. To be noted: Homo sapiens, KYSE-70, KYSE-70 cells, positive Imax corresponds to Nrf2 antagonism, read-out: KYSE70 Cellular ARE Luciferase Imax (%). Type of test: cell-based. An excerpt: NRF2 binds to a promoter region, antioxidant response element (ARE), to initiate expression of multiple genes. ARE luciferase reporter assays are used to test whether a ligand can activate or repress the expression of target genes using luciferase as a reporter gene.
KYSE-70 is an esophageal squamous cell carcinoma cell line with a Nrf2 mutation at amino acid position W24C. This mutation lowers the affinity between the E3 ligase that includes KEAP1 and Nrf2, resulting in a state in which the synthesis rate of new Nrf2 is faster than the E3's degradation rate of Nrf2, resulting in a “Nrf2 high” state. In KYSE-70 cells, genes are inserted directly after the ARE that trigger the expression of luciferase. Without a NRF2 antagonist in this modified KYSE70 cell line which has an inherently “NRF2 high state”, luciferase is expressed, and a signal is observed.
Nrf2 antagonists bind at C151 of KEAP1 and stabilize the E3 which results in an increased degradation rate of Nrf2. Increased degradation of Nrf2 results in less expression of luciferase, and therefore a less intense signal.
An IC50 is generated from the dose-response curve and an Imax. A positive Imax corresponds to Nrf2 antagonism. Imax >90% correlates with in vivo tumor grown inhibition. Compounds with Imax >50% were included in this description.
For `C=CC(=O)N1CCOCCC1c1cc(Cl)cc(-c2ncnc(N)n2)c1` (racemic) [Compound 152, 1-(5-(3-(4-amino-1,3,5-triazin-2-yl)-5-chlorophenyl)-1,4-oxazepan-4-yl)prop-2-en-1-one], the Emax was 78%.
Take `C=CC(=O)N1[C@H](C)COC[C@H]1c1cc(Cl)cc(-c2ncccn2)c1` (single isomer, unassigned) [Compound 20]: the Emax amounted to 67%.
For `C=CC(=O)N1CCN(S(C)(=O)=O)C[C@H]1c1cc(Cl)cc(-c2nnn(C)n2)c1` (single isomer, unassigned) [Compound 21] the value was 54%; for `C=CC(=O)N1CCN(C(C)=O)C[C@H]1c1cc(Cl)cc(-c2nnn(C)n2)c1` (single isomer, unassigned) [Compound 22], 64%; for `C=CC(=O)N1CCOCC1c1cc(Cl)nc(-c2nnn(C)n2)c1` (single isomer, unassigned) [Compound 23, 1-(3-(2-chloro-6-(2-methyl-2H-tetrazol-5-yl)pyridin-4-yl)morpholino)prop-2-en-1-one], 55%.
On to `C=CC(=O)N1[C@H](C)COC[C@H]1c1cc(Cl)cc(-c2ccn(C)c(=O)c2)c1` (single isomer, unassigned) [Compound 24], for which the Emax was 73%.
As for `C=CC(=O)N1CCOCC1c1cc(Cl)nc(-c2ccn(C)c(=O)c2)c1` (single isomer, unassigned) [Compound 25, 4-(4-acryloylmorpholin-3-yl)-6-chloro-1′-methyl-[2,4′-bipyridin]-2′(1′H)-one], the Emax came out at 86%.
As to `C=CC(=O)N1CCOCC1c1cc(Cl)nc(-c2ccnnc2)c1` (single isomer, unassigned) [Compound 30, 1-(3-(2-chloro-6-(pyridazin-4-yl)pyridin-4-yl)morpholino)prop-2-en-1-one], the Emax was found to be 72%.
In the case of `C=CC(=O)N1CCOC[C@H]1c1cc(Cl)cc(-c2ncnc(N)n2)c1` (single isomer, unassigned) [Compound 55], the Emax was 93%.
Take `C=CC(=O)N1CCOCC1c1cc(Cl)cc(-c2cnnc(OC)c2)c1` (single isomer, unassigned) [Compound 56, 1-(3-(3-chloro-5-(6-methoxypyridazin-4-yl)phenyl)morpholino)prop-2-en-1-one]: the Emax worked out at 74%.
As for `C=CC(=O)N1CCOCC1c1cc(Cl)cc(-c2ccn3cc(C)nc3c2)c1` (single isomer, unassigned) [Compound 57, 1-(3-(3-chloro-5-(2-methylimidazo[1,2-a]pyridin-7-yl)phenyl)morpholino)prop-2-en-1-one], the Emax was determined as 84%.
For `C=CC(=O)N1CCOCC1c1cc(Cl)cc(-c2cncc(C)n2)c1` (single isomer, unassigned) [Compound 59, 1-(3-(3-chloro-5-(6-methylpyrazin-2-yl)phenyl)morpholino)prop-2-en-1-one] the value was 81%; for `C=CC(=O)N1CCOCC1c1cc(Cl)cc(-c2ccnc(C(N)=O)c2)c1` (single isomer, unassigned) [Compound 75, 4-(3-(4-acryloylmorpholin-3-y1)-5-chlorophenyl)picolinamide], 92%; for `C=CC(=O)N1CC(C)(C)OCC1c1cc(Cl)nc(-c2ccnc(N)n2)c1` (single isomer, unassigned) [Compound 99, 1-(5-(2-(2-aminopyrimidin-4-yl)-6-chloropyridin-4-y1)-2,2-dimethylmorpholino)prop-2-en-1-one], 82%.
For `C=CC(=O)N1[C@H](C)COC[C@H]1c1cc(Cl)cc(-c2ccc(F)c(C(N)=O)c2)c1` (single isomer, unassigned) [Compound 108] the value was 70%.
Consider `C=CC(=O)N1[C@H](C)COC[C@H]1c1cc(Cl)cc(-c2ccnc(C)n2)c1` (single isomer, unassigned) [Compound 109], for which the Emax came to 91%.
Take `C=CC(=O)N1[C@H](C)COC[C@H]1c1cc(Cl)cc(-c2ccnc(N)n2)c1` (single isomer, unassigned) [Compound 110]: the Emax is 93%.
For `C=CC(=O)N1CCOCC1c1cc(Cl)cc(-c2nccc3[nH]ccc23)c1` (single isomer, unassigned) [Compound 111, 1-(3-(3-chloro-5-(1H-pyrrolo[3,2-c]pyridin-4-yl)phenyl)morpholino)prop-2-en-1-one] the value was 90%.
For `C=CC(=O)N1CCOCC1(C)c1cc(Cl)cc(-c2ncnc(N)n2)c1` (single isomer, unassigned) [Compound 112, 1-(3-(3-(4-amino-1,3,5-triazin-2-yl)-5-chlorophenyl)-3-methylmorpholino)prop-2-en-1-one] the value was 95%; for `C=CC(=O)N1CCOCC1(C)c1cc(Cl)cc(-c2ccnc(N)n2)c1` (single isomer, unassigned) [Compound 113, 1-(3-(3-(2-aminopyrimidin-4-yl)-5-chlorophenyl)-3-methylmorpholino)prop-2-en-1-one], 94%.
For `C=CC(=O)N1CCOCC1(C)c1cc(Cl)cc(-c2ccc(F)c(C(N)=O)c2)c1` (single isomer, unassigned) [Compound 114, 3′-(4-acryloyl-3-methylmorpholin-3-yl)-5′-chloro-4-fluoro-[1,1′-biphenyl]-3-carboxamide] the value was 87%; for `C=CC(=O)N1CCOC[C@H]1c1cc(Cl)cc(-c2cnn(C3CC3)c2)c1` (single isomer, unassigned) [Compound 115], 74%.
`C=CC(=O)N1CCOC[C@H]1c1cc(Cl)cc(-c2cnn(C)c2)c1` (single isomer, unassigned) [Compound 116]: the Emax turned out to be 84%.
Consider `C=CC(=O)N1CCOC[C@H]1c1cc(Cl)cc(-c2cn[nH]c2)c1` (single isomer, unassigned) [Compound 117], for which the Emax turned out to be 84%.
Turning to `C=CC(=O)N1CCOC[C@H]1c1cc(Cl)cc(-n2cc(C)cn2)c1` (single isomer, unassigned) [Compound 118], the Emax is 63%.
For `C=CC(=O)N1CCOCC1c1cc(Cl)nc(-c2cc(N)ncn2)c1` (single isomer, unassigned) [Compound 119, 1-(3-(2-(6-aminopyrimidin-4-yl)-6-chloropyridin-4-yl)morpholino)prop-2-en-1-one] the value was 96%.
Turning to `C=CC(=O)N1CC2(CC2)OCC1c1cc(Cl)cc(-c2cc(N)ncn2)c1` (single isomer, unassigned) [Compound 140, 1-(6-(3-(6-aminopyrimidin-4-yl)-5-chlorophenyl)-4-oxa-7-azaspiro[2.5]octan-7-yl)prop-2-en-1-one], the Emax came out at 72%.
Turning to `C=CC(=O)N1CCOC[C@H]1c1cc(Cl)cc(-c2cnnc(N)c2)c1` (single isomer, unassigned) [Compound 141], the Emax amounted to 89%.
In the case of `C=CC(=O)N1[C@H](C)COC[C@H]1c1cc(Cl)nc(-c2ccnc(C)n2)c1` (single isomer, unassigned) [Compound 142], the Emax was 81%.
For `C=CC(=O)N1CCOCC1c1cc(Cl)nc(-c2ncnc(N)n2)c1` (single isomer, unassigned) [Compound 146, 1-(3-(2-(4-amino-1,3,5-triazin-2-yl)-6-chloropyridin-4-yl)morpholino)prop-2-en-1-one] the value was 71%; for `C=CC(=O)N1CCOCC12COc1c(-c3ncnc(N)n3)cc(Cl)cc12` (single isomer, unassigned) [Compound 151, 1-(7-(4-amino-1,3,5-triazin-2-yl)-5-chloro-2H-spiro[benzofuran-33′-morpholino]-4′-yl)prop-2-en-1-one], 81%.
As for `C=CC(=O)N1CC2(CC2)OCC1c1cc(Cl)cc(-c2ncnc(N)n2)c1` (single isomer, unassigned) [Compound 153, 1-(6-(3-(4-amino-1,3,5-triazin-2-y1)-5-chlorophenyl)-4-oxa-7-azaspiro[2.5]octan-7-yl)prop-2-en-1-one], the Emax was found to be 94%.
For `C=CC(=O)N1CC2(CC2)OCC1(C)c1cc(Cl)cc(-c2ncnc(N)n2)c1` (single isomer, unassigned) [Compound 160, 1-(6-(3-(4-amino-1,3,5-triazin-2-yl)-5-chlorophenyl)-6-methyl-4-oxa-7-azaspiro[2.5]octan-7-yl)prop-2-en-1-one] the value was 91%; for `C=CC(=O)N1[C@H](C(N)=O)COC[C@H]1c1cc(Cl)nc(-c2ccc(F)c(C(N)=O)c2)c1` (single isomer, unassigned) [Compound 181], 66%; for `C=CC(=O)N1CCOC[C@H]1c1cc(Cl)cc(-c2c[nH]c(=O)[nH]2)c1` (single isomer, unassigned) [Compound 184], 72%.
On to `C=CC(=O)N1CCN(C(=O)C2CC2)C[C@H]1c1cc(Cl)cc(-c2ccnc(N)n2)c1` (single isomer, unassigned) [Compound 185], for which the Emax was 94%.
On to `C=CC(=O)N1CCN(C(=O)CC#N)C[C@H]1c1cc(Cl)cc(-c2ccnc(N)n2)c1` (single isomer, unassigned) [Compound 186], for which the Emax was 83%.
Regarding `C=CC(=O)N1CCN(C(=O)CC#N)C[C@H]1c1cc(Cl)cc(-c2ccnc(NC(=O)CC#N)n2)c1` (single isomer, unassigned) [Compound 189], the Emax came out at 79%.
On to `C=CC(=O)N1[C@H](c2cc(Cl)nc(-c3ccn4ccnc4c3)c2)COC[C@H]1C(F)F` (single isomer, unassigned) [Compound 194], for which the Emax was found to be 84%.
